# Results from PubChem BioAssay AID256 (DTP/NCI, 2004).
# Values joined by “and” are separate entries in the source; they are usually repeats but may differ in a detail not shown here. Identical values can stand only once. Toxic doses and inconclusive results are not listed.
# System: CD2F1 mice, L1210 leukemia ip, survival T/C
# Test: NCI In Vivo Anticancer Drug Screen. Data for tumor model L1210 Leukemia (intraperitoneal) in CD2F1 (CDF1) mice
# Settings: higher = longer survival
# Outline: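 Each value reflects a quotient of treated over vehicle control outcomes in mice with a transplanted tumor.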
# [1] = endpoint: mean survival time, dose: 100.0 mg/kg/injection, schedule: Q04DX003 (ip), vehicle: saline with Tween-80
# [2] = endpoint: mean survival time, dose: 200.0 mg/kg/injection, schedule: Q04DX003 (ip), vehicle: saline with Tween-80
# [3] = endpoint: mean survival time, dose: 400.0 mg/kg/injection, schedule: Q04DX003 (ip), vehicle: saline with Tween-80
# [4] = endpoint: mean survival time, dose: 100.0 mg/kg/injection, schedule: Q01DX009 (ip), vehicle: saline with Tween-80
# [5] = endpoint: mean survival time, dose: 200.0 mg/kg/injection, schedule: Q01DX009 (ip), vehicle: saline with Tween-80
# [6] = endpoint: mean survival time, dose: 400.0 mg/kg/injection, schedule: Q01DX009 (ip), vehicle: saline with Tween-80
# [7] = endpoint: mean survival time, dose: 200.0 mg/kg/injection, schedule: Q04DX002 (ip), vehicle: saline with Tween-80
# [8] = endpoint: mean survival time, dose: 100.0 mg/kg/injection, schedule: Q04DX003 (ip), vehicle: saline
# [9] = endpoint: mean survival time, dose: 200.0 mg/kg/injection, schedule: Q04DX003 (ip), vehicle: saline
# [10] = endpoint: mean survival time, dose: 50.0 mg/kg/injection, schedule: Q01DX009 (ip), vehicle: Klucel (hydroxypropylcellulose) (HPC)
# [11] = endpoint: mean survival time, dose: 100.0 mg/kg/injection, schedule: Q01DX009 (ip), vehicle: Klucel (hydroxypropylcellulose) (HPC)
smiles,measurement,setting,value
O=[N+]([O-])c1ccc(N=Nc2ccccc2)cc1,T/C,[1],90 % of control
same,T/C,[2],92 % of control
same,T/C,[3],92 % of control
COc1ccc2c(c1)C1CCCC(=O)C1N2 (configuration not stated),T/C,[4],97 % of control
same,T/C,[5],91 % of control
same,T/C,[6],91 % of control
COC(=O)c1c(C)c(-c2ccccc2)c(-c2ccccc2)c(C)c1C(=O)OC,T/C,"endpoint: mean survival time, dose: 100.0 mg/kg/injection, schedule: Q04DX002 (ip), vehicle: saline with Tween-80",98 % of control
same,T/C,[7],95 % of control
same,T/C,"endpoint: mean survival time, dose: 400.0 mg/kg/injection, schedule: Q04DX002 (ip), vehicle: saline with Tween-80",95 % of control
O=C1CSC(=S)N1Cc1ccccc1,T/C,[1],101 % of control
same,T/C,[2],97 % of control
same,T/C,[3],97 % of control
CCSSCCN,T/C,"endpoint: mean survival time, dose: 100.0 mg/kg/injection, schedule: Q01DX009 (ip), vehicle: saline",94 % of control
same,T/C,[8],93 % of control
same,T/C,"endpoint: mean survival time, dose: 200.0 mg/kg/injection, schedule: Q01DX009 (ip), vehicle: saline",93 % of control
same,T/C,[9],89 % of control
same,T/C,"endpoint: mean survival time, dose: 400.0 mg/kg/injection, schedule: Q01DX009 (ip), vehicle: saline",102 % of control
same,T/C,"endpoint: mean survival time, dose: 400.0 mg/kg/injection, schedule: Q04DX003 (ip), vehicle: saline",97 % of control
COc1cc(C(CC(C)=O)c2cc3c(cc2OC(C)=O)OCO3)cc(OC)c1OC (configuration not stated) (tested in a mixture with another compound),T/C,"endpoint: median survival time, dose: 15.0 mg/kg/injection, schedule: Q01DX005 (ip), vehicle: saline with Tween-80",103 % of control
same,T/C,"endpoint: median survival time, dose: 30.0 mg/kg/injection, schedule: Q01DX005 (ip), vehicle: saline with Tween-80",101 % of control
same,T/C,"endpoint: median survival time, dose: 43.2 mg/kg/injection, schedule: Q01DX005 (ip), vehicle: saline with Tween-80",105 % of control
same,T/C,"endpoint: median survival time, dose: 60.0 mg/kg/injection, schedule: Q01DX005 (ip), vehicle: saline with Tween-80",114 % of control
same,T/C,"endpoint: median survival time, dose: 72.0 mg/kg/injection, schedule: Q01DX005 (ip), vehicle: saline with Tween-80",113 % of control and 110 % of control
same,T/C,"endpoint: median survival time, dose: 200.0 mg/kg/injection, schedule: Q01DX005 (ip), vehicle: saline with Tween-80",162 % of control and 168 % of control
same,T/C,"endpoint: median survival time, dose: 240.0 mg/kg/injection, schedule: Q01DX005 (ip), vehicle: saline with Tween-80",103 % of control
CC(=O)CC(Br)CBr (configuration not stated),T/C,[1],96 % of control
CC1(C)C/C(=C\c2ccc([N+](=O)[O-])cc2)C(=O)c2ccccc21,T/C,"endpoint: mean survival time, dose: 12.5 mg/kg/injection, schedule: Q01DX009 (ip), vehicle: Klucel (hydroxypropylcellulose) (HPC)",102 % of control
same,T/C,"endpoint: mean survival time, dose: 25.0 mg/kg/injection, schedule: Q01DX009 (ip), vehicle: Klucel (hydroxypropylcellulose) (HPC)",98 % of control
same,T/C,[10],96 % of control
same,T/C,[11],98 % of control
same,T/C,"endpoint: mean survival time, dose: 200.0 mg/kg/injection, schedule: Q01DX009 (ip), vehicle: Klucel (hydroxypropylcellulose) (HPC)",93 % of control
same,T/C,"endpoint: mean survival time, dose: 400.0 mg/kg/injection, schedule: Q01DX009 (ip), vehicle: Klucel (hydroxypropylcellulose) (HPC)",94 % of control
CCC(CN(C)C)C(=O)c1ccccc1 (configuration not stated),T/C,[8],91 % of control
same,T/C,[7],86 % of control
same,T/C,[9],95 % of control
O=c1nc(N2CCSCC2)ccn1C1OC(CO)C(O)C1O (configuration not stated),T/C,"endpoint: median survival time, dose: 12.5 mg/kg/injection, schedule: Q01DX005 (ip), vehicle: water",100 % of control
same,T/C,"endpoint: median survival time, dose: 25.0 mg/kg/injection, schedule: Q01DX005 (ip), vehicle: water",101 % of control
same,T/C,"endpoint: median survival time, dose: 50.0 mg/kg/injection, schedule: Q01DX005 (ip), vehicle: water",102 % of control
same,T/C,"endpoint: median survival time, dose: 100.0 mg/kg/injection, schedule: Q01DX005 (ip), vehicle: water",101 % of control
same,T/C,"endpoint: median survival time, dose: 200.0 mg/kg/injection, schedule: Q01DX005 (ip), vehicle: water",103 % of control
COc1ccc(C(=O)/C=N/O)cc1,T/C,"endpoint: mean survival time, dose: 25.0 mg/kg/injection, schedule: Q04DX003 (ip), vehicle: saline with Tween-80",100 % of control
same,T/C,"endpoint: mean survival time, dose: 50.0 mg/kg/injection, schedule: Q04DX003 (ip), vehicle: saline with Tween-80",100 % of control
same,T/C,[1],95 % of control and 98 % of control
CC(C)C1CCC(C)C(C(O)(C(F)(F)F)C(F)(F)F)C1=O (configuration not stated),T/C,"endpoint: mean survival time, dose: 100.0 mg/kg/injection, schedule: Q04DX003 (ip), vehicle: Klucel (hydroxypropylcellulose) (HPC)",96 % of control
same,T/C,"endpoint: mean survival time, dose: 200.0 mg/kg/injection, schedule: Q04DX003 (ip), vehicle: Klucel (hydroxypropylcellulose) (HPC)",95 % of control
same,T/C,"endpoint: mean survival time, dose: 400.0 mg/kg/injection, schedule: Q04DX003 (ip), vehicle: Klucel (hydroxypropylcellulose) (HPC)",96 % of control
CCSCCCO,T/C,"endpoint: mean survival time, dose: 75.0 mg/kg/injection, schedule: Q04DX003 (ip), vehicle: saline",95 % of control
same,T/C,"endpoint: mean survival time, dose: 150.0 mg/kg/injection, schedule: Q04DX003 (ip), vehicle: saline",97 % of control
same,T/C,"endpoint: mean survival time, dose: 300.0 mg/kg/injection, schedule: Q04DX003 (ip), vehicle: saline",103 % of control
CC1Cc2c3ccc4ccccc4c3cc3cccc1c23 (configuration not stated) (tested in a mixture with another compound),T/C,"endpoint: mean survival time, dose: 75.0 mg/kg/injection, schedule: Q04DX002 (ip), vehicle: saline with Tween-80",105 % of control
same,T/C,"endpoint: mean survival time, dose: 150.0 mg/kg/injection, schedule: Q04DX002 (ip), vehicle: saline with Tween-80",105 % of control
same,T/C,"endpoint: mean survival time, dose: 300.0 mg/kg/injection, schedule: Q04DX002 (ip), vehicle: saline with Tween-80",97 % of control
CCOC(=O)C1C(=O)N(C)C(=O)N1Cc1ccccc1 (configuration not stated),T/C,"endpoint: mean survival time, dose: 12.5 mg/kg/injection, schedule: Q01DX009 (ip), vehicle: other",93 % of control
same,T/C,"endpoint: mean survival time, dose: 25.0 mg/kg/injection, schedule: Q01DX009 (ip), vehicle: other",89 % of control
same,T/C,"endpoint: mean survival time, dose: 50.0 mg/kg/injection, schedule: Q01DX009 (ip), vehicle: other",101 % of control
same,T/C,"endpoint: mean survival time, dose: 100.0 mg/kg/injection, schedule: Q01DX009 (ip), vehicle: other",101 % of control
same,T/C,"endpoint: mean survival time, dose: 200.0 mg/kg/injection, schedule: Q01DX009 (ip), vehicle: other",101 % of control
O=C(COc1ccccc1)N/N=C/c1cccc([N+](=O)[O-])c1,T/C,[5],89 % of control
same,T/C,[6],94 % of control
COc1ccc2c(c1OC)CC1N(S(=O)(=O)c3ccc(C)cc3)CCC13c1ccccc1N(C(C)=O)C23 (configuration not stated),T/C,"endpoint: mean survival time, dose: 75.0 mg/kg/injection, schedule: Q01DX001 (ip), vehicle: other",95 % of control
same,T/C,"endpoint: mean survival time, dose: 150.0 mg/kg/injection, schedule: Q01DX001 (ip), vehicle: other",89 % of control and 95 % of control
same,T/C,"endpoint: mean survival time, dose: 300.0 mg/kg/injection, schedule: Q01DX001 (ip), vehicle: other",97 % of control and 100 % of control
O=S1(=O)C=CCCC=C1,T/C,[10],93 % of control
same,T/C,[11],93 % of control
C[n+]1ccccc1/C=C/c1ccccn1,T/C,"endpoint: mean survival time, dose: 5.3 mg/kg/injection, schedule: Q01DX009 (ip), vehicle: saline with Tween-80",97 % of control
same,T/C,"endpoint: mean survival time, dose: 6.25 mg/kg/injection, schedule: Q04DX003 (ip), vehicle: saline",95 % of control
same,T/C,"endpoint: mean survival time, dose: 8.0 mg/kg/injection, schedule: Q01DX009 (ip), vehicle: saline with Tween-80",100 % of control
same,T/C,"endpoint: mean survival time, dose: 12.0 mg/kg/injection, schedule: Q01DX009 (ip), vehicle: saline with Tween-80",100 % of control
same,T/C,"endpoint: mean survival time, dose: 12.5 mg/kg/injection, schedule: Q04DX003 (ip), vehicle: saline",98 % of control
same,T/C,"endpoint: mean survival time, dose: 18.0 mg/kg/injection, schedule: Q01DX009 (ip), vehicle: saline with Tween-80",92 % of control
same,T/C,"endpoint: mean survival time, dose: 25.0 mg/kg/injection, schedule: Q04DX003 (ip), vehicle: saline",92 % of control
CCCCOC1CCC2(C)C(=CCC3C2CCC2(C)C(C(C)CCCC(C)C)CCC32)C1 (configuration not stated),T/C,"endpoint: mean survival time, dose: 100.0 mg/kg/injection, schedule: Q01DX009 (sc), vehicle: steriod suspending solution",114 % of control
same,T/C,"endpoint: mean survival time, dose: 100.0 mg/kg/injection, schedule: Q04DX003 (sc), vehicle: steriod suspending solution",91 % of control
same,T/C,"endpoint: mean survival time, dose: 200.0 mg/kg/injection, schedule: Q01DX009 (sc), vehicle: steriod suspending solution",102 % of control
same,T/C,"endpoint: mean survival time, dose: 200.0 mg/kg/injection, schedule: Q04DX003 (sc), vehicle: steriod suspending solution",96 % of control
same,T/C,"endpoint: mean survival time, dose: 400.0 mg/kg/injection, schedule: Q01DX009 (sc), vehicle: steriod suspending solution",103 % of control
same,T/C,"endpoint: mean survival time, dose: 400.0 mg/kg/injection, schedule: Q04DX003 (sc), vehicle: steriod suspending solution",102 % of control
N=C(N)N,T/C,"endpoint: mean survival time, dose: 50.0 mg/kg/injection, schedule: Q01DX009 (ip), vehicle: saline with Tween-80",96 % of control
same,T/C,[4],98 % of control
same,T/C,[1],96 % of control
same,T/C,[5],96 % of control
same,T/C,[2],94 % of control
COc1cccc(C(=O)C=C(C(F)(F)F)C(F)(F)F)c1,T/C,"endpoint: mean survival time, dose: 12.5 mg/kg/injection, schedule: Q01DX009 (ip), vehicle: saline with Tween-80",104 % of control
same,T/C,"endpoint: mean survival time, dose: 25.0 mg/kg/injection, schedule: Q01DX009 (ip), vehicle: saline with Tween-80",109 % of control
Nc1ccccc1NS(=O)(=O)c1ccc(Cl)cc1,T/C,[4],95 % of control
same,T/C,[5],101 % of control
same,T/C,[6],106 % of control
